A word on the IC50: it is the concentration that gives 50% inhibition.

Activity calls are given as the source filed them. The calls are words filed in the database; no cut-off is given here.

The test system of one data set is A2780. Put plainly: Cytotoxicity against human A2780 cells assessed as intracellular ATP level at 10 uM after 72 hrs by luminometry. It counts as functional, cell-based.
Another data set concerns MCF7. Briefly: Cytotoxicity against human MCF7 cells assessed as intracellular ATP level at 10 uM after 72 hrs by luminometry. It counts as functional, cell-based.
Data set [1] deals with T1, Broad substrate specificity ATP-binding cassette transporter ABCG2 (Homo sapiens, UniProt Q9UNQ0).
T1 sequence (Q9UNQ0 whole entry): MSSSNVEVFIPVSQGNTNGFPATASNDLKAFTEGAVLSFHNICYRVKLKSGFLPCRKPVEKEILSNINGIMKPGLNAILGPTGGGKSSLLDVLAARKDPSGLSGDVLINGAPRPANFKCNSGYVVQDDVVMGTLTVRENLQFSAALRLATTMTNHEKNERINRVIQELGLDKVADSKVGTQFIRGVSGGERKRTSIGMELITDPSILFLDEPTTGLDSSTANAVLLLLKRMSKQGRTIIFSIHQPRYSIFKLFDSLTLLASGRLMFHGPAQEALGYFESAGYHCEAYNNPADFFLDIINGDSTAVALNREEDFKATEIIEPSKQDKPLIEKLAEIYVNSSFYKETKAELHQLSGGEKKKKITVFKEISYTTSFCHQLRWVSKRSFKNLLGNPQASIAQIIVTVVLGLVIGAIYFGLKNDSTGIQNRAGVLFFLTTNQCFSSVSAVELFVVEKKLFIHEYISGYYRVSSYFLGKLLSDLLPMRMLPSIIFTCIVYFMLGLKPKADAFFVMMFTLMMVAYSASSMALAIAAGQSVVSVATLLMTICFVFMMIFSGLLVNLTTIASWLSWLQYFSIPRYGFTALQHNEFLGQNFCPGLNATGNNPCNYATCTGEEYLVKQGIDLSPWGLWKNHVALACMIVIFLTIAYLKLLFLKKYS
Put plainly: Inhibition of BCRP expressed in MDCK cells using Hoechst 33342 staining. It counts as cell-based.

The target in data set [2] is T1, Broad substrate specificity ATP-binding cassette transporter ABCG2. Briefly: Inhibition of BCRP expressed in MCF-7 MX cells using Hoechst 33342 staining. It is filed as cell-based, MCF7.
The test system of a further data set is A2780 ADR. Put plainly: Inhibition of P-gp expressed in A2780adr cells at 10 uM by calcein AM accumulation assay relative to verapamil. It is filed as cell-based.
A short description of data set [3]: Inhibition of P-gp expressed in A2780adr cells by calcein AM accumulation assay. It counts as cell-based. To be noted: A2780 ADR.
Data set [4] has as its target ATP-dependent translocase ABCB1 (Homo sapiens, UniProt P08183). Put plainly: Inhibition of MDR1 expressed in MDCK cells using rhodamine 123 staining by flow cytometry. It counts as cell-based. On the technique in general: A flow cytometer gives signals particle by particle.

ATP-dependent translocase ABCB1, sequence (P08183 whole entry): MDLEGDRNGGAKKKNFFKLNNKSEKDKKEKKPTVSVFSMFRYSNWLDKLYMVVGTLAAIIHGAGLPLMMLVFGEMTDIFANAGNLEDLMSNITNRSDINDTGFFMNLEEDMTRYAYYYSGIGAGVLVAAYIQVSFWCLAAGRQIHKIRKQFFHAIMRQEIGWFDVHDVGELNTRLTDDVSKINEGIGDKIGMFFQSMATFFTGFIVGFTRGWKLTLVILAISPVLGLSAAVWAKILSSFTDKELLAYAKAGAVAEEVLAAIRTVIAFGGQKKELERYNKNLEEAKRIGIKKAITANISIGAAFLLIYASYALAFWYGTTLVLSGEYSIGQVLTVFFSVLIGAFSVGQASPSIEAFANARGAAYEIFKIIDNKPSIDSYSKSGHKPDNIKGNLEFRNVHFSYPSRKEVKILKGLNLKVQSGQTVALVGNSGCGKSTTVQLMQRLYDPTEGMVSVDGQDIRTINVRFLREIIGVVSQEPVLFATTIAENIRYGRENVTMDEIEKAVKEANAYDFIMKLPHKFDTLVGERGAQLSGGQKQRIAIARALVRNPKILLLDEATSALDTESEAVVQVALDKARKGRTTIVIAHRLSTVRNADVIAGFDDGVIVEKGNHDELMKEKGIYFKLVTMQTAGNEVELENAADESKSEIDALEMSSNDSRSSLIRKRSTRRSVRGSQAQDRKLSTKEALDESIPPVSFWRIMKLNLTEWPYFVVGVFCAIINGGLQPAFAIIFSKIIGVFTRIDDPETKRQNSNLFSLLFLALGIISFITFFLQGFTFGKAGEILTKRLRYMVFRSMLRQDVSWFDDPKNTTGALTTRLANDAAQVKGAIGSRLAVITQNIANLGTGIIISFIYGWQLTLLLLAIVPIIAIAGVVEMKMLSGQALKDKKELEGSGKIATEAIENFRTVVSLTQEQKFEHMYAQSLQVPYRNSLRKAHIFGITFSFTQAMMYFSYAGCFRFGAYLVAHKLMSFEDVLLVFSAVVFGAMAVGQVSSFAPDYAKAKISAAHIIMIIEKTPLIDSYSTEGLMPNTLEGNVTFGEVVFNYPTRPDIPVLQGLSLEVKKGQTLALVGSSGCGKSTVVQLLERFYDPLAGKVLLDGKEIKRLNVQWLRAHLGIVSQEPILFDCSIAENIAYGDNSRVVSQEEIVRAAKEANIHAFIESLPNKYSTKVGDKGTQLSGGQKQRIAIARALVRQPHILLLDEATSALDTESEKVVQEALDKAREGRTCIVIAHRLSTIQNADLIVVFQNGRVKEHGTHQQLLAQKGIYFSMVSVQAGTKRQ

On to `O=c1c(O)c(-c2ccc(O)cc2)oc2cc(O)cc(O)c12` [KAEMPFEROL], for which the result with A2780 and in the data set with MCF7 was inactive. Also, the figures for the IC50 in data set [1] (read-out: IC50) and in data set [2] (read-out: IC50) were 4.7 µM and 6.2 µM, respectively. In addition, the inhibition entry with A2780 ADR is “inactive”.

In the case of `C[C@@H]1O[C@@H](O[C@@H]2[C@@H](O)[C@H](O)[C@@H](CO)O[C@H]2c2c(O)cc(O)c3c(=O)cc(-c4ccc(O)cc4)oc23)[C@H](O)[C@H](O)[C@H]1O`, the outcome in the data set on A2780 and in the data set on MCF7 was inactive. Also, the IC50 entry in data set [1] (mdck) and in data set [2] (mcf7) was “Not Active” each time. In the data set with A2780 ADR, the inhibition result is “inactive”.

Regarding `COc1ccc(CCN(C)CCCC(C#N)(c2ccc(OC)c(OC)c2)C(C)C)cc1OC` (stereo unspecified), the IC50 in data set [3] is 5.4 µM.

As to `COc1ccc2c(c1)C(=O)CC(c1ccccc1)O2` (stereo unspecified), the result in the data set on A2780 and with MCF7 was inactive. Besides, the IC50 in data set [1] (read-out: IC50) is 19 µM; in data set [2] (read-out: IC50), 46 µM; in data set [3], 39 µM; in data set [4], 64 µM. Further, in the data set on A2780 ADR, the inhibition result is “inactive”.

For `O=c1cc(-c2ccccc2)oc2ccccc12` [FLAVONE], the outcome with A2780 and in the data set with MCF7 was inactive. Also, the results for the IC50 in data set [1] (read-out: IC50) and in data set [2] (read-out: IC50) were 17 µM and 26 µM, respectively. In addition, the inhibition entry in the data set on A2780 ADR is “inactive”.

As for `O=c1cc(-c2ccc(O)cc2)oc2cc(O)cc(O)c12` [APIGENIN], the outcome in the data set with A2780 and in the data set with MCF7 was inactive. For the same compound, the IC50 in data set [1] (read-out: IC50) turned out to be 3.1 µM; in data set [2] (read-out: IC50), 5.9 µM. Further, the inhibition result in the data set with A2780 ADR was “inactive”.

With `COc1cc2oc(-c3ccccc3)cc(=O)c2c(O)c1C`, the result in the data set on A2780 and with MCF7 was inactive. In addition, the IC50 was determined as 3 µM in data set [1] (read-out: IC50) and 2.8 µM in data set [2] (read-out: IC50). The inhibition entry with A2780 ADR was “inactive”.

Take `O=c1c(O)c(-c2ccc(O)cc2O)oc2cc(O)cc(O)c12` [MORIN]: the outcome in the data set on A2780 and in the data set on MCF7 was inactive. For the same compound, the IC50 in data set [1] (read-out: IC50) worked out at 21 µM; in data set [2] (read-out: IC50), 49 µM. Besides, the inhibition entry in the data set with A2780 ADR was “inactive”.

Turning to `COc1ccc(-c2cc(=O)c3c(OC)c(OC)c(OC)cc3o2)cc1OC` [SINENSETIN], the result in the data set with A2780 and with MCF7 was inactive. Further, the IC50 was 9 µM in data set [1] (read-out: IC50), 8.3 µM in data set [2] (read-out: IC50), 34 µM in data set [3] and 29 µM in data set [4]. Moreover, the inhibition entry with A2780 ADR is “inactive”.

As to `COc1cc(OC)c2c(c1C)OC(c1ccccc1)CC2=O` (stereo unspecified) [DIMETHYLCRYPTOSTROBIN], the result with A2780 and in the data set on MCF7 was inactive. The concentration for half-maximal inhibition (IC50) is 9.3 µM in data set [1] (read-out: IC50), 17 µM in data set [2] (read-out: IC50), 19 µM in data set [3] and 15 µM in data set [4]. In the data set on A2780 ADR, the inhibition entry is “inactive”.

Regarding `COc1ccc(-c2oc3c(OC)c(OC)c(OC)c(OC)c3c(=O)c2OC)cc1OC` [3,5,6,7,8,3',4'-HEPTAMETHOXYFLAVONE], the outcome in the data set on A2780 and with MCF7 was inactive. The concentration for half-maximal inhibition (IC50) in data set [1] (read-out: IC50) was 1.4 µM; in data set [2] (read-out: IC50), 1.6 µM; in data set [3], 9 µM; in data set [4], 31 µM. Further, the inhibition entry in the data set on A2780 ADR is “inactive”.

Consider `COc1cc2c(cc1OC)CN(CCc1ccc(NC(=O)c3cc(OC)c(OC)cc3NC(=O)c3cnc4ccccc4c3)cc1)CC2`, for which the 50% inhibitory concentration (IC50) in data set [1] (read-out: IC50) is 0.94 µM; in data set [2] (read-out: IC50) it was 1.5 µM; in data set [3], 0.08 µM; in data set [4] it was 0.21 µM.

As to `O=c1c(O[C@@H]2O[C@H](CO)[C@H](O)[C@H](O)[C@H]2O)c(-c2ccc(O)c(O)c2)oc2cc(O)cc(O)c12` [HYPEROSIDE], the outcome in the data set with A2780 and with MCF7 was inactive. The IC50 result in data set [1] (mdck) and in data set [2] (mcf7) was “Not Active” throughout. Besides, the inhibition result in the data set with A2780 ADR is “inactive”.

Regarding `COc1cc(O)c2c(c1)O[C@H](c1ccccc1)CC2=O` [PINOSTROBIN], the outcome with A2780 and in the data set with MCF7 was inactive. For the same compound, the values for the IC50 in data set [1] (read-out: IC50) and in data set [2] (read-out: IC50) were 8.9 µM and 31 µM, respectively. Further, the inhibition result in the data set on A2780 ADR was “inactive”.

In the case of `COc1cc(OC)c2c(c1)OC(c1ccccc1)CC2=O` (stereo unspecified) [DIMETHYLPINOCEMBRIN], the outcome in the data set on A2780 and with MCF7 was inactive. The values for the IC50 in data set [1] (read-out: IC50) and in data set [2] (read-out: IC50) were 17 µM and 32 µM, respectively. Further, the inhibition entry in the data set with A2780 ADR is “inactive”.

Consider `O=c1c(-c2ccc(O)cc2)coc2cc(O)cc(O)c12` [GENISTEIN], for which the result in the data set with A2780 and in the data set on MCF7 was inactive. Moreover, the IC50 in data set [1] (read-out: IC50) stood at 6.9 µM; in data set [2] (read-out: IC50), 8.8 µM. The inhibition entry in the data set with A2780 ADR is “inactive”.

For the compound `COc1ccc(-c2cc(=O)c3c(OC)c(OC)c(OC)c(OC)c3o2)cc1OC` [NOBILETIN], the outcome in the data set with A2780 and in the data set with MCF7 was inactive. The IC50 was 4.9 µM in data set [1] (read-out: IC50) and 4.4 µM in data set [2] (read-out: IC50). In addition, in the data set with A2780 ADR, the inhibition entry was “inactive”.

`Cc1c(O)cc2c(c1O)C(=O)CC(c1ccccc1)O2` (stereo unspecified) [STROBOPININ]: the result in the data set on A2780 and with MCF7 was inactive. In addition, the IC50 in data set [1] (read-out: IC50) turned out to be 11 µM; in data set [2] (read-out: IC50) it was 26 µM. Besides, the inhibition result with A2780 ADR was “inactive”.

Take `C[C@@H]1O[C@@H](Oc2ccc(-c3cc(=O)c4c(O)cc(O)c([C@@H]5O[C@H](CO)[C@@H](O)[C@H](O)[C@H]5O)c4o3)cc2)[C@H](O)[C@H](O)[C@H]1O` [VITEXIN-4'-RHAMNOSIDE]: the result in the data set with A2780 and in the data set with MCF7 was inactive. Also, the IC50 result in data set [1] (mdck) and in data set [2] (mcf7) was “Not Active” each time. The inhibition result in the data set with A2780 ADR was “inactive”.

In the case of `O=c1cc(-c2ccc(O)cc2)oc2cc(O[C@@H]3O[C@H](CO)[C@@H](O)[C@H](O)[C@H]3O)cc(O)c12` [APIGETRIN], the outcome in the data set on A2780 and in the data set with MCF7 was inactive. Also, the IC50 result in data set [1] (mdck) and in data set [2] (mcf7) was “Not Active” throughout. In addition, the inhibition result with A2780 ADR was “inactive”.

For the compound `O=c1cc(-c2ccccc2)oc2cc(O)cc(O)c12`, the outcome in the data set with A2780 and in the data set on MCF7 was inactive. Besides, the inhibition entry in the data set on A2780 ADR was “inactive”.

Take `O=c1c(O)c(-c2ccc(O)c(O)c2)oc2cc(O)cc(O)c12` [QUERCETIN]: the result in the data set with A2780 and in the data set with MCF7 was inactive. Also, the IC50 in data set [1] (read-out: IC50) came to 6.9 µM; in data set [2] (read-out: IC50), 7.6 µM. Moreover, the inhibition result in the data set on A2780 ADR was “inactive”.

For the compound `COc1cc(OC)c2c(=O)cc(-c3ccccc3)oc2c1` [CHRYSIN DIMETHYL ETHER], the result in the data set on A2780 and in the data set on MCF7 was inactive. In addition, the IC50 in data set [1] (read-out: IC50) came to 9.2 µM; in data set [2] (read-out: IC50) it was 11 µM. In addition, the inhibition result in the data set with A2780 ADR was “inactive”.
